For test [1], the system named is HIV-1. The note with it: MT4 cells, reported in 2014; read-out: IC50 HIV-1 infectivity; cited from earlier work.
In test [2] the test system is HIV-1. Kind of test: microbe, parasite or virus in culture. Format: cell-based. The conditions noted are these: for inhibition of HIV-1 infectivity: 10 µM.
Test [3] relates to HIV-1. The conditions noted are these: primary infected cells versus MT4 infected cell lines; cited from earlier work.
The next test concerns Ebola Gabon virus. Kind of test: microbe, parasite or virus in culture. The test is classed as cell-based. The note with it: Zaire ebolavirus, read-out: Ebola virus inhibition (immunohistochemistry, infectious titer).
A further test relates to Marburg virus. The test can be described thus: organism not typed. The test is classed as cell-based. The conditions noted are these: read-out: Marburg virus inhibition (immunohistochemistry, infectious titer).

Like-named read-outs stand apart in the source and are kept apart here.

As usually defined, the IC50 is the concentration that inhibits the measured activity by half. The inhibition is the relative decrease from the control value, in per cent.

As to `CN(C)c1ccc(Nc2c3ccc(NC(=O)CCN4CCCC4)cc3nc3cc(NC(=O)CCN4CCCC4)ccc23)cc1` [Braco19], the IC50 is about 6 µM in the test with HIV-1 [1] and about 8 µM in the test on HIV-1 [2] (Human immunodeficiency virus 1, HeLaP4, read-out: IC50 HIV-1 infectivity). Moreover, in the test on HIV-1 [3], the “antiviral effect in primary infected cells” value is given as “less efficient with respect to MT4 infected cell lines”.

For the molecule `COc1ccc2c(ccc3c2cc2c4ccc(OC)cc4ccc2[n+]3-c2ccccc2)c1.[Cl-]` [C031], in the test with HIV-1 [2], the “activity on HIV-1 relative to BRACO-19” value is on record as “at least five time more active” and the “inhibition of HIV-1 infectivity” value is “Complete inhibition”.

Consider `c1ccc(-[n+]2c3ccc4ccccc4c3cc3c4ccccc4ccc32)cc1` [C038], for which, in the test on HIV-1 [2], the “inhibition of HIV-1 infectivity” value was “Complete inhibition”.

As to `COc1ccc2c(ccc3c2cc2c4ccc(OC)cc4ccc2[n+]3-c2ccc([N+](=O)[O-])cc2)c1` [C0370], in the test with HIV-1 [2], the “activity on HIV-1 relative to BRACO-19” value is on record as “at least five time more active”, the “selectivity index (SI)” value is 17 and the “inhibition of HIV-1 infectivity” value was “Complete inhibition”.

Regarding `c1ccc(C[n+]2c3ccc4ccccc4c3cc3c4ccccc4ccc32)cc1` [CO39], the inhibition at 5 µM with Ebola Gabon virus (5 μM) was about 60%; in the test with Marburg virus (5 μM), 30%. Besides, the inhibition at 20 µM in the test with Ebola Gabon virus (20 μM) and in the test with Marburg virus (20 μM) was about 100% in each case.

These data come from patent US20230339862A1, “NOVEL DIBENZOACRIDINIUM DERIVATIVES, THEIR PROCESS OF PREPARATION AND THEIR USE FOR TREATING VIRAL INFECTIONS” (priority 2020, published 2023).
